Test results published in BindingDB's records for doi:10.1021/jm00355a015 (1983).

Biological target: arachidonate 5-lipoxygenase (Cavia porcellus)
Test: Inhibitory activity against 5-lipoxygenase

Row | IC50 | SMILES
1 | 100 µM | CCCCC/C=C\C/C=C\C/C=C\C=C\C(CO)CCCC(=O)O (stereo not drawn) [5-Hydroxymethyl-icosa-6,8,11,14-tetraenoic acid]
2 | 2 µM | CCCCC/C=C\C/C=C\C/C=C\C=C\[C@@H](O)CCCC(=O)O [(5S,6E,8Z,11Z,14Z)-5-hydroxyicosa-6,8,11,14-tetraenoic acid]

Continued, compound first:

Row | SMILES | IC50
3 | CCCCC/C=C\C\C=C/C=C/C=C/C1CC1CCCC(=O)O (stereo not drawn) [4-(2-Tetradeca-1,3,5,8-tetraenyl-cyclopropyl)-butyric acid] | 3 µM
4 | CCCCCCCCCCCCCCC1CC1CCCC(=O)O (stereo not drawn) [4-(2-Tetradecyl-cyclopropyl)-butyric acid] | 100 µM
5 | CCCCC/C=C\C\C=C/C=C/C=C/C1SC1CCCC(=O)OC (stereo not drawn) [4-(3-Tetradeca-1,3,5,8-tetraenyl-thiiranyl)-butyric acid methyl ester] | 65 µM
6 | CCCCC/C=C\C\C=C/C=C/C=C/[C@@H]1O[C@H]1CCCC(=O)O [4-{(2S,3S)-3-[(1E,3E,5Z,8Z)-tetradeca-1,3,5,8-tetraen-1-yl]oxiran-2-yl}butanoic acid] | 2 µM
7 | CCCCC/C=C\C\C=C/C=C/C=C/C1CC1CCCCC(=O)O (stereo not drawn) [5-(2-Tetradeca-1,3,5,8-tetraenyl-cyclopropyl)-pentanoic acid] | 20 µM
8 | CCCCC/C=C\C/C=C\CC=CC=CC(=O)CCCC(=O)OC [5-Oxo-icosa-6,8,11,14-tetraenoic acid methyl ester] | 20 µM
